Among the data in patent US7459478B2, “Substituted dihydropyrano indole-3,4-dione derivatives as inhibitors of plasminogen activator inhibitor-1 (PAI-1)” (Wyeth, priority 2002, dated 2008) are melting point, IC50 and inhibition values, retold here.

The target in one series is human PAI-1 (Homo sapiens, UniProt P05121). As to the kind of experiment: Assay for determining IC50 of inhibition of PAI-1 (tPA-coated plate, antibody detection of active PAI-1). As to conditions: human PAI-1 50 ng/ml, pH 7.5, binding to tPA-coated plate. How it is done: Assay for Determining IC50 of Inhibition of PAI-1
This assay is based upon the non-SDS dissociable interaction between tPA and active PAI-1. Assay plates were initially coated with human tPA (10 μg/ml). Test compounds were dissolved in DMSO at 10 mM, then diluted with physiologic buffer (pH 7.5) to a final concentration of 1-50 μM. Test compounds were incubated with human PAI-1 (50 ng/ml) for 15 minutes at room temperature. The tPA-coated plate was washed with a solution of 0.05% Tween 20 and 0.1% BSA, then the plate was blocked with a solution of 3% BSA. An aliquot of the test compound/PAI-1 solution was then added to the tPA-coated plate, incubated at room temperature for 1 hour, and washed. Active PAI-1 bound to the plate was assessed by adding an aliquot of a 1:1000 dilution of the 33B8 monoclonal antibody against human PAI-1, and incubating the plate at room temperature for 1 hour (Molecular Innovations, Royal Oak, Mich.). The plate was again washed, and a solution of goat anti-mouse IgG-alkaline phosphatase conjugate is added at a 1:50,000 dilution in goat serum. The plate was incubated 30 minutes at room temperature, washed, and a solution of alkaline phosphatase substrate is added. The plate was incubated 45 minutes at room temperature, and color development is determined at OD405 nm. The quantition of active PAI-1 bound to tPA at varying concentrations of the test compound was used to determine the IC50. Results were analyzed using a logarithmic best-fit equation. The assay sensitivity was 5 ng/ml of human PAI-1 as determined from a standard curve ranging from 0-100 ng/ml.

Series [1] deals with T1, recombinant human plasminogen activator inhibitor-1 (Homo sapiens, UniProt P05121).
T1 construct: purchased Molecular Innovations, Royal Oak, Mich
Description: Primary screen for the PAI-1 inhibition (chromogenic residual tPA activity). In kind it is biochemical. How it is done:
Primary Screen for the PAI-1 Inhibition
Test compounds were dissolved in DMSO at a final concentration of 10 mM, then diluted 100× in physiologic buffer. The inhibitory assay was initiated by the addition of the test compound (1-100 μM final concentration, maximum DMSO concentration of 0.2%) in a pH 6.6 buffer containing 140 nM recombinant human plasminogen activator inhibitor-1 (Molecular Innovations, Royal Oak, Mich.). Following a 1 hour incubation at room temperature, 70 nM of recombinant human tissue plasminogen activator (tPA) was added, and the combination of the test compound, PAI-1 and tPA was incubated for an additional 30 minutes. Following the second incubation, Spectrozyme-tPA (American Diagnostica, Greenwich, Conn.), a chromogenic substrate for tPA, was added and absorbance read at 405 nm at 0 and 60 minutes. Relative PAI-1 inhibition was equal to the residual tPA activity in the presence of the test compound and PAI-1. Control treatments included the complete inhibition of tPA by PAI-1 at the molar ratio employed (2:1), and the absence of any effect of the test compound on tPA alone.

Setting [2] is: 25 uM test compound, 140 nM PAI-1, 70 nM tPA, pH 6.6, read-out: % inhibition at 25 uM.
[3] abbreviates: pH 6.6, read-out: % inhibition at 25 uM.

Where two headings read alike, the source gives them in different places.

T1 sequence (P05121 24-402): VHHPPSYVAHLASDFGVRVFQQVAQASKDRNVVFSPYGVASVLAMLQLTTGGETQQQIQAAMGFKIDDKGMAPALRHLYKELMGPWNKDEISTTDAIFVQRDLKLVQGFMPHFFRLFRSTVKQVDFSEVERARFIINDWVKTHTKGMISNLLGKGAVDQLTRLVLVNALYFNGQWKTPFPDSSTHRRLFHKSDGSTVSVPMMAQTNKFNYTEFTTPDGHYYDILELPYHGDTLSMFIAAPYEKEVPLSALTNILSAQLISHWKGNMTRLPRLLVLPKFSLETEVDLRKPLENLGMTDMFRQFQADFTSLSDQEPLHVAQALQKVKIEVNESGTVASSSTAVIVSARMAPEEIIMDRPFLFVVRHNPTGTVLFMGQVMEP
human PAI-1, sequence (P05121 24-402): as above

`Cc1cccc(-c2ccc3c(c2)c2c(n3Cc3ccc(C(C)(C)C)cc3)COC(=O)C2=O)c1` [Example 4, 9-(4-tert-butylbenzyl)-6-(3-methylphenyl)-1,9-dihydropyrano[3,4-b]indole-3,4-dione] came in with a melting point of 196 to 197 °C. On human PAI-1, this molecule had an IC50 of 29.5 µM.

On to `Cc1ccc(Cn2c3c(c4cc(-c5ccc(OC(F)(F)F)cc5)ccc42)C(=O)C(=O)OC3)cc1` [Example 1, 9-(4-Methylbenzyl)-6-[4-(trifluoromethoxy)phenyl]-1,9-dihydropyrano[3,4-b]indole-3,4-dione], for which the melting point was 243 to 244 °C. Also, on human PAI-1, the IC50 turned out to be 2.3 µM.

In the case of `O=C1OCc2[nH]c3ccc(OCc4ccccc4)cc3c2C1=O` [Example 6, 6-(Benzyloxy)-1,9-dihydropyrano[3,4-b]indole-3,4-dione], the melting point was > 291 °C (dec.). In addition, the IC50 at human PAI-1 came to 34.8 µM.

The molecule `O=C1OCc2c(c3cc(-c4ccc(-c5ccccc5)cc4)ccc3n2Cc2ccccc2)C1=O` [Example 12, 9-Benzyl-6-(1,1′-biphenyl-4-yl)-1,9-dihydropyrano[3,4-b]indole-3,4-dione] returned a melting point of 254 to 255 °C. Besides, the inhibition at 25 µM in series [1] (setting [2]) worked out at 40%.

With `CC(C)(C)c1ccc(Cn2c3c(c4cc(O)ccc42)C(=O)C(=O)OC3)cc1` [Example 8, 9-(4-tert-Butylbenzyl)-6-hydroxy-1,9-dihydropyrano[3,4-b]indole-3,4-dione], the melting point is > 105 °C (dec.). The IC50 on human PAI-1 was determined as 4.83 µM.

`Cc1ccc(Cn2c3c(c4cc(-c5cccc(C)c5)ccc42)C(=O)C(=O)OC3)cc1` [Example 3, 9-(4-Methylbenzyl)-6-(3-methylphenyl)-1,9-dihydropyrano[3,4-b]indole-3,4-dione] had a melting point of 216 to 217 °C. For the same molecule, the inhibition at 25 µM in series [1] (setting [3]) is 22%.

Consider `Cc1ccc(Cn2c3c(c4cc(OCc5ccccc5)ccc42)C(=O)C(=O)OC3)cc1` [Example 5, 6-(Benzyloxy)-9-(4-methylbenzyl)-1,9-dihydropyrano[3,4-b]indole-3,4-dione], for which the melting point lay in the range of 206 to 207 °C. The IC50 on human PAI-1 was 26.6 µM.

In the case of `O=C1OCc2c(c3cc(-c4ccc(Cl)cc4)ccc3n2Cc2ccccc2)C1=O` [Example 9, 9-Benzyl-6-(4-chlorophenyl)-1,9-dihydropyrano[3,4-b]indole-3,4-dione], the melting point was 263 to 264 °C. Besides, in series [1] (setting [3]), the inhibition at 25 µM turned out to be 40%.

Consider `CC(C)(C)c1ccc(Cn2c3c(c4cc(OCc5ccccc5)ccc42)C(=O)C(=O)OC3)cc1` [Example 7, 6-(Benzyloxy)-9-(4-tert-butylbenzyl)-1,9-dihydropyrano[3,4-b]indole-3,4-dione], for which the melting point fell in the range of 233 to 234 °C. The inhibition at 25 µM in series [1] (setting [2]) came out at 6%.

Take `O=C1OCc2c(c3cc(-c4ccc(OC(F)(F)F)cc4)ccc3n2Cc2ccccc2)C1=O` [Example 2, 9-Benzyl-6-[4-(trifluoromethoxy)phenyl]-1,9-dihydropyrano[3,4-b]indole-3,4-dione]: the melting point lay within 239 to 240 °C. Moreover, the inhibition at 25 µM in series [1] (setting [2]) is 34%.

In turn, `Cc1cccc(-c2ccc3c(c2)c2c(n3Cc3ccccc3)COC(=O)C2=O)c1` [Example 11, 9-Benzyl-6-(3-methylphenyl)-1,9-dihydropyrano[3,4-b]indole-3,4-dione] showed a melting point of 225 to 226 °C. Also, in series [1] (setting [3]), the inhibition at 25 µM came to 30%.

For the molecule `O=C([O-])C(=O)c1c(CO)n(Cc2ccccc2)c2ccc(-c3ccc(Cl)cc3)cc12.[K+]` [Example 10, [1-Benzyl-5-(4-chlorophenyl)-2-(hydroxymethyl)-1H-indol-3-yl](oxo)acetic acid, potassium salt], the melting point is 225 to 226 °C. The inhibition at 25 µM in series [1] (setting [3]) amounted to 59%.

Turning to `O=C([O-])C(=O)c1c(CO)n(Cc2ccccc2)c2ccc(-c3ccc(-c4ccccc4)cc3)cc12.[K+]` [Example 13, [1-Benzyl-5-(1,1′-biphenyl-4-yl)-2-(hydroxymethyl)-1H-indol-3-yl](oxo)acetic acid, potassium salt], the melting point was in the range of 266 to 268 °C. In addition, the inhibition at 25 µM in series [1] (setting [3]) is 36%.
